PubChem BioAssay (NCI)
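Interpolation was linear, between the two tested concentrations surrounding the appropriate level; five concentrations were tested over 48 hours in 96-well plates. The concentration for 50% growth inhibition is given as GI50. The concentration for full growth arrest is given as TGI.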

Key:
Assay in all cases: NCI-60 cell line screen, 48 h
[1] = test system: 786-0 renal
[2] = test system: A498 renal
[3] = test system: A549 NSCLC
[4] = test system: ACHN renal
[5] = test system: BT-549 breast
[6] = test system: CAKI-1 renal
[7] = test system: CCRF-CEM leukemia
[8] = test system: COLO 205 colon
[9] = test system: DU-145 prostate
[10] = test system: EKVX NSCLC
[11] = test system: HCC-2998 colon
[12] = test system: HCT-116 colon
[13] = test system: HCT-15 colon
[14] = test system: HL-60(TB) leukemia
[15] = test system: HOP-62 NSCLC
[16] = test system: HOP-92 NSCLC
[17] = test system: HS 578T breast
[18] = test system: HT29 colon
[19] = test system: IGROV1 ovarian
[20] = test system: KM12 colon
[21] = test system: LOX IMVI melanoma
[22] = test system: M14 melanoma
[23] = test system: MALME-3M melanoma
[24] = test system: MCF7 breast
[25] = test system: MDA-MB-231 breast
[26] = test system: MDA-MB-435
[27] = test system: NCI-H226 lung
[28] = test system: NCI-H23 lung

O=C(CC1(O)C(=O)N(Cc2ccccc2)c2ccc(F)cc21)c1ccc(C(=O)NCC2CCC3(CC2)OOC2(CCCCC2)OO3)cc1 (stereo not given)
GI50 [1]: 180 nM | TGI [1]: 344 nM | GI50 [2]: 1690 nM | TGI [2]: 3880 nM | GI50 [3]: 207 nM | TGI [3]: 441 nM | GI50 [4]: 179 nM | TGI [4]: 363 nM | GI50 [5]: 1880 nM | TGI [5]: 4280 nM | GI50 [6]: 464 nM | TGI [6]: 954 nM | GI50 [7]: 274 nM | TGI [7]: 924 nM | GI50 [8]: 728 nM | TGI [8]: 2020 nM | GI50 [9]: 187 nM | TGI [9]: 335 nM | GI50 [10]: 412 nM | TGI [10]: 1250 nM | GI50 [11]: 1840 nM | TGI [11]: 3920 nM | GI50 [12]: 1360 nM | TGI [12]: 3290 nM | GI50 [13]: 867 nM | TGI [13]: 3200 nM | GI50 [14]: 349 nM | TGI [14]: 999 nM | GI50 [15]: 179 nM | TGI [15]: 382 nM | GI50 [16]: 186 nM | TGI [16]: 378 nM | GI50 [17]: 1920 nM | TGI [17]: 6080 nM | GI50 [18]: 362 nM | TGI [18]: 1280 nM | GI50 [19]: 236 nM | TGI [19]: 620 nM | GI50 [20]: 338 nM | TGI [20]: 1190 nM | GI50 [21]: 77.1 nM | TGI [21]: 222 nM | GI50 [22]: 2020 nM | TGI [22]: 6630 nM | GI50 [23]: 226 nM | TGI [23]: 540 nM | GI50 [24]: 1920 nM | TGI [24]: > 31900 nM | GI50 [25]: 423 nM | TGI [25]: 1680 nM | GI50 [26]: 468 nM | TGI [26]: 1420 nM | GI50 [27]: 1100 nM | TGI [27]: 4190 nM | GI50 [28]: 246 nM
